pIC50: −log10 of the molar value.
How the values were obtained:
PAF = assay: PAF-induced bronchospasm in guinea pigs (in vivo, oral); design: species or system guinea pig; conditions: PAF 0.4 μg/kg i.v.
Procedure: (§1) B. In Vivo Studies: Agonist-Induced Responses Spasmogen-Induced Bronchospasm in Guinea Pigs
(§2) Male Hartley guinea pigs (450-550 g) were obtained from Charles River Breeding Laboratories. The animals were fasted overnight and the following day were anesthetized with 0.9 mL/kg i.p. of dialurethane (containing 0.1 g/mL dialylbarbiturikc acid, 0.4 g/mL ethylurea and 0.4 g/mL urethane). The left jugular vein was cannulated for the administration of compounds. The trachea was cannulated and the animals were venticlated by a rodent respirator at 55 strokes/min. with a stroke volume of 4 mL. A side arm to the tracheal cannula was connected to a pressure transducer to obtain a continuous measure of inflation pressure. Bronchoconstriction was measured as the percent increase in inflation pressure that peaked within 5 min. after challenge with spasmogen. The animals were challenged i.v. with either histamine (10 ug/kg) or PAF (0.4 μg/kg in isotonic saline containing 0.25% BSA). Each animal was challenged with only a single spasmogen. The effect of a compound on the bronchospasm is expressed as a percent inhibition of the increase in inflation pressure compared to the increase in a control group.

[1] = tested on: PAF-induced platelet aggregation; assay: Platelet Aggregation Assay (PAF antagonism, in vitro); assay type: cell-based; conditions: human platelet-rich plasma, PAF 1-5×10^-8 M, 37° C.
Procedure: Platelet Aggregation Assay
Platelet-activating factor (PAF) causes aggregation of platelets by a receptor-mediated mechanism. Therefore, PAF-induced platelet aggregation provides a simple and convenient assay to screen compounds for PAF antagonism.
Human blood (50 mL) was collected from healthy male donors in an anticoagulant solution (5 mL) containing sodium citrate (3.8%) and dextrose (2%), Blood was centrifuged at 110×g for 15 min. and the supeernatant platelet-rich plasma (PRP) carefully transferred into a polypropylene tube. Platelet-poor-plasma (PPP) was prepared by centrifuging PRP at 12,000×g for 2 min. (Beckman Microfuge B). PRP was used within 3 hr. of drawing the blood.
PAF was dissolved In chloroform:methanol (1:1, v/v) at a concentration of 2 mg/mL and stored at -70° C. An aliquot of this solution was transferred to a polypropylene tube and dried under a flow of nitrogen gas. To the dried sample was added Hepes-e-BSA (BSA=bovine serum albumen) buffer (25 mM Hepes, pH 7.4, […], 0.7 mM MgCl2 and 0.1% BSA) to obtain a 1 mM solution and sonicated for 5 min. in a bath sonicator. This stock solution was further diluted to appropriate concentrations in Hepes-saline-BSA buffer. Collagen (Sigma) and adenosine diphosphate (ADP) (Sigma) were purchased as solutions. Test compounds were initially dissolved in dimethyl sulfoxide (DMSO) at a concentration of 50 mM and then further diluted in Hepes-saline-BSA buffer to achieve appropriate concentrations.
When an aggregating agen such as PAF is added to PRP, platelets aggregate. An aggregometer quantifies this aggreation by measuring and comparing light (infra-red) transmission through PPP and PRP. Aggregation assays were performed using a dual-channel aggregometer (Model 440, Chrono-Log Corp., Havertown, Pa.). PRP (0.45 mL) in aggregometer cuvettes was continually stirred (37° C.). Solution (50 μL) of test compounds or vehicle were added to the PRP and, after incubation for 2 min., 10-15 μl aliquots of PAF solution were added to achieve a final concentration of 1-5×10^-8 M. In different experiments the aggregatory response was kept within a set limit by varying the concentration of PAF. Incubations were continued until the increase in light transmission reached a maximum (usually 2 min.). This increase in lighyt transmission reflecting platlet aggregation is transmitted to a computer by the Chrono-Log model 810 AGGRO/LINK interface. The AGGRO/LINK calculates the slope of transmission change, thus providing the rate of aggregation. Values for inhibition were calculated by comparing rates of aggregation obtained in the absence and the presence of the compound. […]

Histamine = assay: Histamine-induced bronchospasm in guinea pigs (in vivo, oral); design: species or system guinea pig; conditions: histamine 10 ug/kg i.v.
Procedure: as §1, §2

[2] = oral 3 mg/kg, 2 hours after drug
[3] = oral 10 mg/kg, 6 hours after drug
[4] = oral 10 mg/kg, 16 hours after drug
[5] = oral 5 mg/kg, 8 hours after drug
[6] = oral 15 mg/kg, 16 hours after drug
[7] = oral 15 mg/kg, 8 hours after drug

pIC50 [1]	SMILES	Agonist Bronchospasm (in vivo)-Oral, PAF, Inhibition (PAF; oral 10 mg/kg, 2 hours after drug) [%]	Agonist Bronchospasm (in vivo)-Oral, Histamine, Inhibition (Histamine; [2]) [%]	Agonist Bronchospasm (in vivo)-Oral, Histamine, Inhibition (Histamine; [3]) [%]	Agonist Bronchospasm (in vivo)-Oral, Histamine, Inhibition (Histamine; [4]) [%]	Agonist Bronchospasm (in vivo)-Oral, PAF, Inhibition (PAF; [2]) [%]	Agonist Bronchospasm (in vivo)-Oral, PAF, Inhibition (PAF; [3]) [%]	Agonist Bronchospasm (in vivo)-Oral, PAF, Inhibition (PAF; [4]) [%]	Agonist Bronchospasm (in vivo)-Oral, Histamine, Inhibition (Histamine; [5]) [%]	Agonist Bronchospasm (in vivo)-Oral, Histamine, Inhibition (Histamine; [6]) [%]	Agonist Bronchospasm (in vivo)-Oral, PAF, Inhibition (PAF; [5]) [%]	Agonist Bronchospasm (in vivo)-Oral, PAF, Inhibition (PAF; [6]) [%]	Agonist Bronchospasm (in vivo)-Oral, Histamine, Inhibition (Histamine; [7]) [%]	Agonist Bronchospasm (in vivo)-Oral, PAF, Inhibition (PAF; [7]) [%]
5.22	CC(=O)N1CCC(=C2c3ccc(Cl)cc3OCc3cccnc32)CC1 [Compound No. 2]	27	–	–	–	–	–	–	–	–	–	–	–	–
6.40	O=C(c1cc[n+]([O-])cc1)N1CCC(=C2c3ccc(Cl)cc3OCc3cccnc32)CC1 [Compound No. 4, 4-(8-Chloro-5,11-dihydro 1!benzoxepino 4,3-b!pyridin-11-ylidene)-1-(4-pyridinylcarbonyl)piperidine N^1-oxide]	–	46	73	95	76	94	55	–	–	–	–	–	–
6.70	O=C(c1cc[n+]([O-])cc1)N1CCC(=C2c3ccc(Cl)cc3CCc3cccnc32)CC1 [Compound No. 3]	–	37	–	–	93	–	–	33	64	12	13	–	–
6.22	CC(=O)N1CCC(=C2c3ccc(Cl)cc3CCc3cccnc32)CC1 [Compound No. 1]	–	49	–	–	3	–	–	–	–	–	–	100	32

Source: patent US5514687A, “Benzopyrido piperidylidene compounds, compositions, methods of manufacture and method of use” (Schering Corporation, priority 1993, dated 1996)
